Results as given in patent US20060264460A1 (Wyeth, priority 2005, published 2006).

Molecular target: T1, human Cot/Tpl2 kinase (Homo sapiens, UniProt P41279)
T1 construct: human Cot/Tpl2 kinase construct encoding residues 30-398; 6His (N); made in house; host or cells: Sf9 insect cells, baculovirus system (BD Biosciences)
Assay: Tpl2/Cot kinase assay: GST-MEK1 phosphorylation detected by ELISA (DELFIA Eu)
Assay type: biochemical
Procedure, shortened: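 Substrate phosphorylation (GST-MEK1 Ser217/221) quantified by DELFIA europium ELISA, yielding IC50 values. Reaction: 1 h at 30° C, pH 7.2 MOPS buffer, 50 uM ATP, 35 nM GST-MEK1, 0.4 nM monomeric His-Tpl2 purified from Sf9 cells, compounds at 1% final DMSO; stopped with EDTA.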

[1] = Tpl2/Cot kinase, GST-MEK1 substrate, 50 uM ATP
[2] = Table 2, Tpl2/Cot kinase, GST-MEK1 substrate, 50 uM ATP
[3] = 0.4 nM Tpl2, 35 nM GST-MEK1, 50 uM ATP, 1 h at 30° C.
[4] = Tpl2/Cot kinase, GST-MEK1 substrate, 50 uM ATP, 1 h at 30° C., Table 2

T1 sequence (P41279 30-398): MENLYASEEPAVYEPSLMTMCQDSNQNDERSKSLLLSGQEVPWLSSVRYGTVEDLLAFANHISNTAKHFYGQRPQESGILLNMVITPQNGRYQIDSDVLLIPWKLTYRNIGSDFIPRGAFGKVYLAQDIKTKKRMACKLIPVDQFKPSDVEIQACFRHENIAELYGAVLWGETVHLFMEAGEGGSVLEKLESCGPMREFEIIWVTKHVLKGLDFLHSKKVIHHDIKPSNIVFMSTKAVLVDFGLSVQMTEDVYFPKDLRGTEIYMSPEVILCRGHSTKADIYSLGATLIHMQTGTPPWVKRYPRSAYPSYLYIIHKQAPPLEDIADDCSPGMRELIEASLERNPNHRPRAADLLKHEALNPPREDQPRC

| SMILES | IC50 [1] [µM] | IC50 [2] [µM] | further results |
| --- | --- | --- | --- |
| N#Cc1cnc2c(Br)cc(N)cc2c1Nc1cccc(Cl)c1 [Example 365] | – | 0.39 | – |
| N#Cc1cnc2ccc(NCc3cccc[n+]3[O-])cc2c1Nc1ccc(F)c(Cl)c1 [Example 39, 4-(3-Chloro-4-fluoro-phenylamino)-6-[(1-oxy-pyridin-2-ylmethyl)-amino]-quinoline-3-carbonitrile] | – | – | IC50 [3]: 0.011 µM |
| N#Cc1cnc2c(Cl)cc(NCc3cn(C4CCCN(CC(F)(F)C(F)F)CC4)nn3)cc2c1Nc1ccc(F)c(Cl)c1 (centres unmarked) [Example 1013] | – | – | IC50 [4]: 0.43 µM |
| N#Cc1cnc2c(Cl)cc(NCC(=O)NCc3cccnc3)cc2c1Nc1ccc(F)c(Cl)c1 [Example 598] | – | 0.2 | – |
| N#Cc1cnc2c(Cl)cc(NCCc3cnc[nH]3)cc2c1Nc1ccc(F)c(Cl)c1 [Example 283, 8-chloro-4-[(3-chloro-4-fluorophenyl)amino]-6-{[2-(1H-imidazol-5-yl)ethyl]amino}quinoline-3-carbonitrile] | – | – | IC50 [3]: 0.13 µM |
| CN1CCC(CCn2cc(CNc3cc(Br)c4ncc(C#N)c(Nc5ccc(F)c(Cl)c5)c4c3)nn2)CC1 [Example 520] | – | 0.044 | – |
| N#Cc1cnc2ccc(NCc3ccc(O)c(Cl)c3)cc2c1Nc1ccc(F)c(Cl)c1 [Example 151, 6-(3-chloro-4-hydroxybenzylamino)-4-(3-chloro-4-fluorophenylamino)quinoline-3-carbonitrile] | – | – | IC50 [3]: 0.61 µM |
| CN1CCCC1CCn1cc(CNc2cc(Cl)c3ncc(C#N)c(NC4CCCC5(CCCC5)C4)c3c2)nn1 (centres unmarked) [Example 972] | – | – | IC50 [4]: > 3 µM |
| N#Cc1cnc2c(Br)cc(NCc3cn(CCOCCOCCO)nn3)cc2c1Nc1ccc(F)c(Cl)c1 [Example 573] | – | 0.14 | – |
| N#Cc1cnc2ccc(NCCN3CCOCC3)cc2c1NC1CCCCCC1 [Example 252, 4-(cycloheptylamino)-6-[(2-morpholin-4-ylethyl)amino]quinoline-3-carbonitrile] | – | – | IC50 [3]: 6.1 µM |
| CNCCn1cc(CNc2cc(Br)c3ncc(C#N)c(Nc4ccc(F)c(Cl)c4)c3c2)nn1 [Example 684] | 0.038 | – | – |
| N#Cc1cnc2c(Cl)cc(NCc3cn(CC(=O)NCc4ccccn4)nn3)cc2c1Nc1ccc(F)c(Cl)c1 [Example 320, 2-(4-((8-chloro-4-(3-chloro-4-fluorophenylamino)-3-cyanoquinolin-6-ylamino)methyl)-1H-1,2,3-triazol-1-yl)-N-(pyridin-2-ylmethyl)acetamide] | – | – | IC50 [3]: 0.0056 µM |
| CCOc1cc2ncc(C#N)c(Nc3ccc(F)c(Cl)c3)c2cc1NCc1cnc[nH]1 [Example 165, 6-((1H-imidazol-5-yl)methylamino)-4-(3-chloro-4-fluorophenylamino)-7-ethoxyquinoline-3-carbonitrile] | – | – | IC50 [3]: > 40 µM |
| CN1CCN(CCn2cc(CNc3cc(Cl)c4ncc(C#N)c(Nc5ccc(F)c(Cl)c5)c4c3)nn2)CC1 [Example 963] | – | – | IC50 [4]: 0.65 µM |
| CN1CCC[C@H]1CCn1cc(CNc2cc(Br)c3ncc(C#N)c(Nc4ccc(F)c(Cl)c4)c3c2)nn1 [Example 324, (S)-8-bromo-4-(3-chloro-4-fluorophenylamino)-6-((1-(2-(1-methylpyrrolidin-2-yl)ethyl)-1H-1,2,3-triazol-4-yl)methylamino)quinoline-3-carbonitrile] | – | – | IC50 [3]: 0.05 µM |
| CN(C)C(=O)CNc1cc(Cl)c2ncc(C#N)c(Nc3ccc(F)c(Cl)c3)c2c1 [Example 474] | – | 1.7 | – |
| N#Cc1cnc2c(Br)cc(NCc3nc(-c4ccccc4)n[nH]3)cc2c1Nc1ccc(F)c(Cl)c1 [Example 290, 8-Bromo-4-(3-chloro-4-fluoro-phenylamino)-6-[(5-phenyl-2H-[1,2,4]triazol-3-ylmethyl)-amino]-quinoline-3-carbonitrile] | – | – | IC50 [3]: > 40 µM |
| CN1CCCC1CCn1cnc(CNc2cc(Br)c3ncc(C#N)c(Nc4ccc(F)c(Cl)c4)c3c2)c1 (centres unmarked) [Example 708] | 0.034 | – | – |
| COC(=O)N1CCC(n2cc(CN(C(=O)OC)c3cc(Cl)c4ncc(C#N)c(Nc5ccc(F)c(Cl)c5)c4c3)nn2)CC1 [Example 981] | – | – | IC50 [4]: 0.61 µM |
| CN(C)C(=O)c1cc(NCC2CCCCC2)cc2c(Nc3ccc(F)c(Cl)c3)c(C#N)cnc12 [Example 82, 4-(3-chloro-4-fluorophenylamino)-3-cyano-6-(cyclohexylmethylamino)-N,N-dimethylquinoline-8-carboxamide] | – | – | IC50 [3]: 3.9 µM |
| COCCOc1ccc(Br)cc1CNc1ccc2ncc(C#N)c(Nc3ccc(F)c(Cl)c3)c2c1 [Example 48, 6-[5-Bromo-2-(2-methoxy-ethoxy)-benzylamino]-4-(3-chloro-4-fluoro-phenylamino)-quinoline-3-carbonitrile] | – | – | IC50 [3]: 1.5 µM |

| SMILES | IC50 [1] [µM] | IC50 [2] [µM] | further results |
| --- | --- | --- | --- |
| CN1CCCC1CCn1cc(CNc2cc(Cl)c3ncc(C#N)c(NC4CCCCCC4)c3c2)nn1 (centres unmarked) [Example 947] | – | – | IC50 [4]: 0.7 µM |
| CC(C)NC(=O)NCCCn1cc(CNc2cc(Cl)c3ncc(C#N)c(Nc4ccc(F)c(Cl)c4)c3c2)nn1 [Example 908] | 0.001 | – | – |
| CN1CCCC1CCn1cc(CNc2cc(Cl)c3ncc(C#N)c(NC4CCC4)c3c2)nn1 (centres unmarked) [Example 951] | – | – | IC50 [4]: 0.46 µM |
| CC(C)N1CCC(Cn2cc(CNc3cc(Br)c4ncc(C#N)c(Nc5ccc(F)c(Cl)c5)c4c3)nn2)CC1 [Example 736] | 0.029 | – | – |
| CS(=O)(=O)Nc1cccc(CNc2ccc3ncc(C#N)c(Nc4ccc(F)c(Cl)c4)c3c2)c1 [Example 18, N-(3-{[4-(3-Chloro-4-fluoro-phenylamino)-3-cyano-quinolin-6-ylamino]-methyl}-phenyl)-methanesulfonamide] | – | – | IC50 [3]: 0.28 µM |
| N#Cc1cnc2c(Cl)cc(NCc3cn(-c4cc[n+]([O-])cc4)nn3)cc2c1Nc1ccc(F)c(Cl)c1 [Example 749] | 0.016 | – | – |
| N#Cc1cnc2c(Cl)cc(NCc3cn(CCCN4CCNCC4)nn3)cc2c1Nc1ccc(F)c(Cl)c1 [Example 769] | 0.16 | – | – |
| CC(C)(C)OC(=O)N1CCCC1Cn1cc(CNc2cc(Cl)c3ncc(C#N)c(Nc4ccc(F)c(Cl)c4)c3c2)nn1 (centres unmarked) [Example 543] | – | 0.32 | – |
| CS(=O)(=O)N1CCC(n2cc(CNc3cc(Br)c4ncc(C#N)c(Nc5ccc(F)c(Cl)c5)c4c3)nn2)CC1 [Example 710] | 0.0011 | – | – |
| CC(C)(C)OC(=O)N1CCN(CCCn2cc(CNc3cc(Cl)c4ncc(C#N)c(Nc5ccc(F)c(Cl)c5)c4c3)nn2)CC1 [Example 592] | – | 0.23 | – |
| CN1CCCC1CCn1cc(CN(Cc2cn(CCC3CCCN3C)nn2)c2cc(Br)c3ncc(C#N)c(Nc4ccc(F)c(Cl)c4)c3c2)nn1 (centres unmarked) [Example 823] | 0.86 | – | – |
| CCc1[nH]cnc1CNc1cc(Cl)c2ncc(C#N)c(Nc3ccc(F)c(Cl)c3)c2c1 [Example 476] | – | 0.016 | – |
| CC(=O)N1CCC[C@H]1CNc1cc(Cl)c2ncc(C#N)c(Nc3ccc(F)c(Cl)c3)c2c1 [Example 810] | 0.054 | – | – |
| N#Cc1cnc2ccc(NCc3cccnc3)cc2c1Nc1ccc(C(N)=O)cc1 [Example 99, 4-(3-cyano-6-(pyridin-3-ylmethylamino)quinolin-4-ylamino)benzamide] | – | – | IC50 [3]: 24.1 µM |
| CN(C)C(=O)c1cc(NCc2ccn[nH]2)cc2c(Nc3ccc(F)c(Cl)c3)c(C#N)cnc12 [Example 89, 6-((1H-pyrazol-5-yl)methylamino)-4-(3-chloro-4-fluorophenylamino)-3-cyano-N,N-dimethylquinoline-8-carboxamide] | – | – | IC50 [3]: 0.29 µM |
| N#Cc1cnc2c(Br)cc(NCc3cn(CC(=O)N4CCOCC4)nn3)cc2c1Nc1ccc(F)c(Cl)c1 [Example 298, 8-Bromo-4-(3-chloro-4-fluoro-phenylamino)-6-{[1-(2-morpholin-4-yl-2-oxo-ethyl)-1H-[1,2,3]triazol-4-ylmethyl]-amino}-quinoline-3-carbonitrile] | – | – | IC50 [3]: 0.038 µM |
| N#Cc1cnc2c(Cl)cc(NCc3cn(CCCO)nn3)cc2c1Nc1ccc(F)c(Cl)c1 [Example 751] | 0.0036 | – | – |
| N#Cc1cnc2c(Cl)cc(NCc3cn(CC(=O)NCCN4CCOCC4)nn3)cc2c1Nc1ccc(F)c(Cl)c1 [Example 820] | 0.014 | – | – |
| CCNC(=O)N1C2CCC1CC(n1cc(CNc3cc(Cl)c4ncc(C#N)c(Nc5ccc(F)c(Cl)c5)c4c3)nn1)C2 (centres unmarked) [Example 1052] | – | – | IC50 [4]: 0.023 µM |
| N#Cc1cnc2c(Cl)cc(NCc3cn(Cc4ccc(C(F)(F)F)cc4)nn3)cc2c1Nc1ccc(F)c(Cl)c1 [Example 756] | > 3 | – | – |

More lines, main results first:

| IC50 [1] [µM] | IC50 [2] [µM] | SMILES | further results |
| --- | --- | --- | --- |
| 0.61 | – | CC(=O)N1CCCC(CNc2cc(Cl)c3ncc(C#N)c(Nc4ccc(F)c(Cl)c4)c3c2)C1 (centres unmarked) [Example 874] | – |
| – | 0.098 | Cn1nccc1CNc1cc(Br)c2ncc(C#N)c(Nc3ccc(F)c(Cl)c3)c2c1 [Example 446] | – |
| – | > 3 | CC(C)(C)OC(=O)N1CCC[C@H]1CNc1cc(Cl)c2ncc(C#N)c(Nc3ccc(F)c(Cl)c3)c2c1 [Example 618] | – |
| – | 0.0061 | CC(=O)N1CCC(n2cc(CNc3cc(Br)c4ncc(C#N)c(Nc5ccc(F)c(Cl)c5)c4c3)nn2)CC1 [Example 547] | – |
| – | 0.64 | CCc1nc(C)c(CNc2ccc3ncc(C#N)c(Nc4ccc(F)c(Cl)c4)c3c2)[nH]1 [Example 369] | – |
| 0.033 | – | CN1CCC[C@@H]1Cn1cc(CNc2cc(Cl)c3ncc(C#N)c(Nc4ccc(F)c(Cl)c4)c3c2)nn1 [Example 891] | – |
| – | 0.033 | N#Cc1cnc2c(Cl)cc(NCc3cn(CCN4CCOCC4)cn3)cc2c1Nc1ccc(F)c(Cl)c1 [Example 490] | – |
| – | 0.0092 | N#Cc1cnc2c(Br)cc(NCc3cn(CC4CCCN4)nn3)cc2c1Nc1ccc(F)c(Cl)c1 (centres unmarked) [Example 550] | – |
| – | 0.46 | N#Cc1cnc2ccc(NCc3cccc(C(N)=O)c3)cc2c1Nc1ccc(F)c(Cl)c1 [Example 399] | – |
| > 3 | – | CN(C)CCCNC(=O)CNc1cc(Cl)c2ncc(C#N)c(Nc3ccc(F)c(Cl)c3)c2c1 [Example 775] | – |
| 0.012 | – | CSCn1cc(CNc2cc(Br)c3ncc(C#N)c(Nc4ccc(F)c(Cl)c4)c3c2)nn1 [Example 705] | – |
| – | 0.025 | CCCc1[nH]cnc1CNc1cc(Cl)c2ncc(C#N)c(Nc3ccc(F)c(Cl)c3)c2c1 [Example 443] | – |
